Experimental data: ChEMBL document CHEMBL2040771, “Discovery of a potent inhibitor of anaplastic lymphoma kinase with in vivo antitumor activity” (ACS Med Chem Lett, 2010)
Activity calls are given as the source filed them. The calls are words filed in the database; no cut-off is given here.

Key:
[1] = molecular target: Dual specificity protein kinase TTK (Homo sapiens) (UniProt P33981); assay: Inhibition of TTK at 1 uM
[2] = molecular target: Cyclin-G-associated kinase (Homo sapiens) (UniProt O14976); assay: Inhibition of GAK at 1 uM
[3] = molecular target: Protein-tyrosine kinase 2-beta (Homo sapiens) (UniProt Q14289); assay: Inhibition of PYK2 at 1 uM
Protein-tyrosine kinase 2-beta (Homo sapiens), sequence (Q14289 whole entry, looked up): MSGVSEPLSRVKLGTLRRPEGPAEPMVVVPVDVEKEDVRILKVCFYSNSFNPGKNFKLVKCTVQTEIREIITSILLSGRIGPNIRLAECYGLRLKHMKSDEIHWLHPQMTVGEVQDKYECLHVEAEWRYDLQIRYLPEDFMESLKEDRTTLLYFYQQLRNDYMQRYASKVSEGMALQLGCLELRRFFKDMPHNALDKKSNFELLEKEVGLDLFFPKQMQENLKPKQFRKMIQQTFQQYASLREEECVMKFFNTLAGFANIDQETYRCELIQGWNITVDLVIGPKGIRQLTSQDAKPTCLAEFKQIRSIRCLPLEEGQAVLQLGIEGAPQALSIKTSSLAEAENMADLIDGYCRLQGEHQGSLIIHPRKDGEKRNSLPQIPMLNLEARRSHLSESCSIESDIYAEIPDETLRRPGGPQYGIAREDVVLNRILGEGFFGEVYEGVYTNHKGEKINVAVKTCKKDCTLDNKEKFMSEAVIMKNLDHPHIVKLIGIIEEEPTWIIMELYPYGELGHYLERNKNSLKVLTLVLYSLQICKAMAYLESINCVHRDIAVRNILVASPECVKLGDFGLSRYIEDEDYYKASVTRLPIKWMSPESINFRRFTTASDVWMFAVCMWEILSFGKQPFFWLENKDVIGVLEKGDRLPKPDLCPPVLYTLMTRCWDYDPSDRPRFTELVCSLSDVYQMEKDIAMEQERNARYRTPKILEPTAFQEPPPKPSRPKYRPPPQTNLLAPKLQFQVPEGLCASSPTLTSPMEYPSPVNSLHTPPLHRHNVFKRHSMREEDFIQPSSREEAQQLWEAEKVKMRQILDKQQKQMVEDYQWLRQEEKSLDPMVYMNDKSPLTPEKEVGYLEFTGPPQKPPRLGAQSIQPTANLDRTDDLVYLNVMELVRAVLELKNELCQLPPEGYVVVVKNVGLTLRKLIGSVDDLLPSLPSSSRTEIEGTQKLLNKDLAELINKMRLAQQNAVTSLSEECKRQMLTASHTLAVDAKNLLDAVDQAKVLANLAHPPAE

[4] = molecular target: Tyrosine-protein kinase Srms (Homo sapiens) (UniProt Q9H3Y6); assay: Inhibition of SRMS at 1 uM
[5] = Drug uptake in tumor lysates in SCID mouse xenografted with ALK-positive human SUP-M2 cells at 10 mg/kg, po bid for 12 days; type: ADME, organism-based, Neoplasm; set-up: dose 10 mg/kg, route oral; settings: read-out: Drug uptake
[6] = system: Receptor-type tyrosine-protein kinase FLT3 (Homo sapiens), P36888 [D835Y]; assay: Inhibition of FLT3 D835Y mutant at 0.1 uM
Mus musculus [7] = assay: Toxicity in SCID mouse xenografted with human SUP-M2 cells at 30 mg/kg, po BID for 12 days; type: organism-based; set-up: dose 30 mg/kg, route oral; settings: in vivo, 288 h
[8] = Drug uptake in tumor lysates in SCID mouse xenografted with ALK-positive human SUP-M2 cells at 30 mg/kg, po bid for 12 days; type: ADME, organism-based, Neoplasm; set-up: dose 30 mg/kg, route oral; settings: read-out: Drug uptake
[9] = Half life in Sprague-Dawley rat at 1 mg/kg, iv; type: ADME, organism-based; set-up: dose 1 mg/kg, route intravenous; settings: in vivo
[10] = molecular target: Focal adhesion kinase 1 (Homo sapiens) (UniProt Q05397); assay: Inhibition of FAK at 1 uM
Focal adhesion kinase 1 (Homo sapiens), sequence (Q05397 2-1052 limits assumed): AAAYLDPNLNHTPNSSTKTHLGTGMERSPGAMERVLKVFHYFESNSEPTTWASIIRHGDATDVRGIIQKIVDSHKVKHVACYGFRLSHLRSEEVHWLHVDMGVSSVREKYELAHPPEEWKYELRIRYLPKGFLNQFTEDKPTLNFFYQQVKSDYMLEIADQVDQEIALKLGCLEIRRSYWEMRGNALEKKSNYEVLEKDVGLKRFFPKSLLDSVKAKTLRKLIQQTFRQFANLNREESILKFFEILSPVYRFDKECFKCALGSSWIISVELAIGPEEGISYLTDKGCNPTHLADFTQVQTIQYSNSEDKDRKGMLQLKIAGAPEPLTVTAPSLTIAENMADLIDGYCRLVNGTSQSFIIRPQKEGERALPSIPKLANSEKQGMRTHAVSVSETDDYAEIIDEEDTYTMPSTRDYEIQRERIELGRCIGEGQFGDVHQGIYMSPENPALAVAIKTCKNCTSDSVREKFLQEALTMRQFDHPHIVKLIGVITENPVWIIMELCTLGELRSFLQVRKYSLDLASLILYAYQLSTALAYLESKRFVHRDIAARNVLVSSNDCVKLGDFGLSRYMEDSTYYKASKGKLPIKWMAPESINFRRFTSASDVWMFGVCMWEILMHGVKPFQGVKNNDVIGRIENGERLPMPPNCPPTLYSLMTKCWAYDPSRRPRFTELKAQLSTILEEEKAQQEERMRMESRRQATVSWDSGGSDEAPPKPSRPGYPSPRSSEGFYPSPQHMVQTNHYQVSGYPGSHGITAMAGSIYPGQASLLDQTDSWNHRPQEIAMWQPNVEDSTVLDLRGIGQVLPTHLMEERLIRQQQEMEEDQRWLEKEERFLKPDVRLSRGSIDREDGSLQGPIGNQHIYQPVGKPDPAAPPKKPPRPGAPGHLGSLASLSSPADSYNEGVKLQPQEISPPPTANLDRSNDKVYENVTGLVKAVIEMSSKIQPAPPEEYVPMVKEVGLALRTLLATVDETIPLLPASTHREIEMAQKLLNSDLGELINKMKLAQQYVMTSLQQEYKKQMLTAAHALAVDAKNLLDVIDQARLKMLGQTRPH

[11] = molecular target: Dual specificity mitogen-activated protein kinase kinase 4 (Homo sapiens) (UniProt P45985); assay: Inhibition of MEK4 at 1 uM
[12] = molecular target: Vascular endothelial growth factor receptor 3 (Homo sapiens) (UniProt P35916); assay: Inhibition of FLT4 at 1 uM
[13] = Plasma clearance in Sprague-Dawley rat at 1 mg/kg, iv by LC/MS/MS analysis; type: ADME, organism-based; set-up: dose 1 mg/kg, route intravenous
[14] = system: Receptor-type tyrosine-protein kinase FLT3 (Homo sapiens), P36888 [D835Y]; assay: Inhibition of FLT3 D835Y mutant at 1 uM
[15] = molecular target: Serine/threonine-protein kinase PLK4 (Homo sapiens) (UniProt O00444); assay: Inhibition of PLK4 at 1 uM
[16] = molecular target: T1, ALK tyrosine kinase receptor (Homo sapiens, UniProt Q9UM73); assay: Inhibition of NPM-ALK autophosphorylation in human KARPAS299 cells in presence of mouse plasma; type: cell-based; settings: karpas-299
T1 sequence (Q9UM73 19-1620 limits assumed): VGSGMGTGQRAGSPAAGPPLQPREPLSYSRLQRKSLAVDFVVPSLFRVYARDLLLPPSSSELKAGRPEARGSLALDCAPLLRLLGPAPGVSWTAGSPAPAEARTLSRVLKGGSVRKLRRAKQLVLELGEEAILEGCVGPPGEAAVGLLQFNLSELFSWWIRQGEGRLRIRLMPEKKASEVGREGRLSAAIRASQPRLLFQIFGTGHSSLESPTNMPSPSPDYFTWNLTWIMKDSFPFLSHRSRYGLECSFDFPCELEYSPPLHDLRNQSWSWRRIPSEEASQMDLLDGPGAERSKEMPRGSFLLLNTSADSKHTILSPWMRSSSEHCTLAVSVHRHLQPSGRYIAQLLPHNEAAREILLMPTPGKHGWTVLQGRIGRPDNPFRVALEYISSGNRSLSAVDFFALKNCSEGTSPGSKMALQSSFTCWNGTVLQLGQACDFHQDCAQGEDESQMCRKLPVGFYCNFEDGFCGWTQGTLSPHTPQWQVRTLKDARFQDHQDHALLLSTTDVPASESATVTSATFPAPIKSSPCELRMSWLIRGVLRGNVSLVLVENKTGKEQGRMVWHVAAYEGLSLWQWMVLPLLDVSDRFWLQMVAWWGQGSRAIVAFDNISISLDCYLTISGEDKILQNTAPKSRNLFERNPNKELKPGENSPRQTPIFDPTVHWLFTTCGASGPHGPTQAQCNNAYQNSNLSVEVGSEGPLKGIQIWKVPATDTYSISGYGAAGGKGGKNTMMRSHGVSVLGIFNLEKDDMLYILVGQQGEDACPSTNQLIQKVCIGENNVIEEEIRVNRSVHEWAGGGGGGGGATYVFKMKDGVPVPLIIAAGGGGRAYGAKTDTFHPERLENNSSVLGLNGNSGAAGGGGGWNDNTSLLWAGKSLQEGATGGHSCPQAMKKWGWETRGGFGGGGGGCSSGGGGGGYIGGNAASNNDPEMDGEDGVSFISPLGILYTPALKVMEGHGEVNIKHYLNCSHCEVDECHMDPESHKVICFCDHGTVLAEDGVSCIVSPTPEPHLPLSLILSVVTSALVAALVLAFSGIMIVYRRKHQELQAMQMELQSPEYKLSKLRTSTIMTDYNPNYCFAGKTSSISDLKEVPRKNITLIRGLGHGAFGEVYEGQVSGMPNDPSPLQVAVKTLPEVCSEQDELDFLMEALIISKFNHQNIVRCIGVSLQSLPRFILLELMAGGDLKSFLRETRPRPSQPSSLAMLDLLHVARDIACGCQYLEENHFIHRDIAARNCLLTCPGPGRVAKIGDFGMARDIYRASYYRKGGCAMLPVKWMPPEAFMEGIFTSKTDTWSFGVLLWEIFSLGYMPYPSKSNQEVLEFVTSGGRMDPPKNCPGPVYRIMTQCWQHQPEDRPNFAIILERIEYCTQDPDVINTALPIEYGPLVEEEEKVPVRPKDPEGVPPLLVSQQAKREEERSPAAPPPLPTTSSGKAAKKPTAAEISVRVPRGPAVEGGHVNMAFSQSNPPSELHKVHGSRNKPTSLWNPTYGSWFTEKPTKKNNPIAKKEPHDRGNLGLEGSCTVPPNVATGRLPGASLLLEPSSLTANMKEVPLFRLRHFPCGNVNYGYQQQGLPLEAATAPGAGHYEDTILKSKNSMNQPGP

SUP-M2 [17] = assay: Induction apoptosis in ALK-positive human SUP-M2 cells assessed as activation of caspase 3/7 by fluorometric assay; type: functional, cell-based
[18] = AUC in Sprague-Dawley rat at 1 mg/kg, iv; type: ADME, organism-based; set-up: dose 1 mg/kg, route intravenous; settings: plasma
SUP-M2 [19] = assay: Antitumor activity against ALK-positive human SUP-M2 cells xenografted in SCID mouse at 10 mg/kg, po bid after 12 days; type: functional, organism-based; set-up: dose 10 mg/kg
[20] = molecular target: NUAK family SNF1-like kinase 1 (Homo sapiens) (UniProt O60285); assay: Inhibition of ARK5 at 0.1 uM
[21] = molecular target: Serine/threonine-protein kinase 32B (Homo sapiens) (UniProt Q9NY57); assay: Inhibition of YANK2 at 0.1 uM
[22] = molecular target: Leukocyte tyrosine kinase receptor (Homo sapiens) (UniProt P29376); assay: Inhibition of LTK at 0.1 uM
[23] = AUC in Sprague-Dawley rat at 5 mg/kg, po; type: ADME, organism-based; set-up: dose 5 mg/kg, route oral; settings: plasma
[24] = Half life in SCID mouse at 10 mg/kg, po; type: ADME, organism-based; set-up: dose 10 mg/kg, route oral; settings: in vivo
[25] = molecular target: Tyrosine-protein kinase Fer (Homo sapiens) (UniProt P16591); assay: Inhibition of FER at 0.1 uM
[26] = molecular target: T1, ALK tyrosine kinase receptor; settings: 0.1 uM
Description: Inhibition of ALK at 0.1 uM

Rattus norvegicus = assay: Clearance with respect to hepatic blood flow in Sprague-Dawley rat at 1 mg/kg, iv; type: ADME, organism-based, Liver; set-up: dose 1 mg/kg, route intravenous; settings: in vivo
[27] = molecular target: Dual specificity mitogen-activated protein kinase kinase 1 (Homo sapiens) (UniProt Q02750); assay: Inhibition of MEK1 at 1 uM
Dual specificity mitogen-activated protein kinase kinase 1 (Homo sapiens), sequence (Q02750 whole entry): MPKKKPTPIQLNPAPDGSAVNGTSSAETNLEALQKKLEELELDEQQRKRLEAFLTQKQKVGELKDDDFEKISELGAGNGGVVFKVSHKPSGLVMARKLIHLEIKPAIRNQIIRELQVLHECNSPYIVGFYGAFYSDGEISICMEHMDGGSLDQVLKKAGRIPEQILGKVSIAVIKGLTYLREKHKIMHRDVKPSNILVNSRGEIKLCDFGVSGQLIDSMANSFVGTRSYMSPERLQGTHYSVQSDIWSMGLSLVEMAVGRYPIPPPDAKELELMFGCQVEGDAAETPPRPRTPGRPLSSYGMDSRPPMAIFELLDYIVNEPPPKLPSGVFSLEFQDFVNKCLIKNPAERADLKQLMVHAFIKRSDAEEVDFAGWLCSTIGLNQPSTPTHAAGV

[28] = molecular target: Dual specificity mitogen-activated protein kinase kinase 1 (Homo sapiens) (UniProt Q02750); assay: Inhibition of MEK1 at 0.1 uM
[29] = AUC in SCID mouse at 10 mg/kg, po; type: ADME, organism-based; set-up: dose 10 mg/kg, route oral; settings: plasma
Mus musculus [30] = assay: Toxicity in SCID mouse xenografted with human SUP-M2 cells assessed as weight loss at 55 mg/kg, po BID for 12 days; type: organism-based; set-up: dose 55 mg/kg, route oral; settings: in vivo, 288 h
[31] = molecular target: Epidermal growth factor receptor (Homo sapiens) (UniProt P00533); assay: Inhibition of EGFR at 0.1 uM
[32] = Half life in Sprague-Dawley rat at 5 mg/kg, po; type: ADME, organism-based; set-up: dose 5 mg/kg, route oral; settings: in vivo
[33] = molecular target: Proto-oncogene tyrosine-protein kinase ROS (Homo sapiens) (UniProt P08922); assay: Inhibition of ROS at 1 uM
[34] = Oral bioavailability in Sprague-Dawley rat at 5 mg/kg; type: ADME, organism-based; settings: in vivo
[35] = AUC in beagle dog at 10 mg/kg, po; type: ADME, organism-based, Canis lupus familiaris; set-up: dose 10 mg/kg, route oral; settings: plasma
[36] = molecular target: Focal adhesion kinase 1 (Homo sapiens) (UniProt Q05397); assay: Inhibition of FAK at 0.1 uM
[37] = system: Epidermal growth factor receptor (Homo sapiens), P00533 [L861Q]; assay: Inhibition of EGFR L861Q mutant at 1 uM; type: protein assay
Mus musculus [38] = assay: Clearance with respect to hepatic blood flow in SCID mouse at 1 mg/kg, iv; type: ADME, organism-based, Liver; set-up: dose 1 mg/kg, route intravenous; settings: in vivo
[39] = molecular target: Dual specificity protein kinase TTK (Homo sapiens) (UniProt P33981); assay: Inhibition of TTK at 0.1 uM
[40] = molecular target: Serine/threonine-protein kinase PAK 3 (Homo sapiens) (UniProt O75914); assay: Inhibition of PAK3 at 1 uM
[41] = molecular target: Non-receptor tyrosine-protein kinase TNK1 (Homo sapiens) (UniProt Q13470); assay: Inhibition of TNK1 at 1 uM
[42] = molecular target: Macrophage colony-stimulating factor 1 receptor (Homo sapiens) (UniProt P07333); assay: Inhibition of CSF1R at 1 uM
[43] = molecular target: Serine/threonine-protein kinase PAK 3 (Homo sapiens) (UniProt O75914); assay: Inhibition of PAK3 at 0.1 uM
K562 = assay: Growth inhibition of ALK-negative human K562 cells up to 1 uM by MTS assay; type: functional, cell-based
[44] = molecular target: Ribosomal protein S6 kinase alpha-2 (Homo sapiens) (UniProt Q15349); assay: Inhibition of RPS6KA2 at 1 uM
[45] = molecular target: Epidermal growth factor receptor (Homo sapiens) (UniProt P04626+P00533+Q15303+P21860); assay: Inhibition of EGFR L747 to E749 deletion, A750P mutant at 0.1 uM; type: protein assay
Mus musculus [46] = assay: Antitumor activity in ALK-positive human SUP-M2 cells xenografted in SCID mouse assessed as inhibition of NPM-ALK autophosphorylation in tumor lysate at 30 mg/kg, po administered as single dose measured after 12 hrs; type: functional; settings: SUP-M2, Neoplasm, read-out: TGI
KARPAS-299 = assay: Induction apoptosis in ALK-positive human KARPAS299 cells assessed as activation of caspase 3/7 by fluorometric assay; type: functional, cell-based
[47] = molecular target: Protein-tyrosine kinase 2-beta (Homo sapiens) (UniProt Q14289); assay: Inhibition of PYK2 at 0.1 uM
[48] = molecular target: Serine/threonine-protein kinase ULK3 (Homo sapiens) (UniProt Q6PHR2); assay: Inhibition of ULK3 at 1 uM

Dual specificity protein kinase TTK (Homo sapiens), sequence (P33981 whole entry): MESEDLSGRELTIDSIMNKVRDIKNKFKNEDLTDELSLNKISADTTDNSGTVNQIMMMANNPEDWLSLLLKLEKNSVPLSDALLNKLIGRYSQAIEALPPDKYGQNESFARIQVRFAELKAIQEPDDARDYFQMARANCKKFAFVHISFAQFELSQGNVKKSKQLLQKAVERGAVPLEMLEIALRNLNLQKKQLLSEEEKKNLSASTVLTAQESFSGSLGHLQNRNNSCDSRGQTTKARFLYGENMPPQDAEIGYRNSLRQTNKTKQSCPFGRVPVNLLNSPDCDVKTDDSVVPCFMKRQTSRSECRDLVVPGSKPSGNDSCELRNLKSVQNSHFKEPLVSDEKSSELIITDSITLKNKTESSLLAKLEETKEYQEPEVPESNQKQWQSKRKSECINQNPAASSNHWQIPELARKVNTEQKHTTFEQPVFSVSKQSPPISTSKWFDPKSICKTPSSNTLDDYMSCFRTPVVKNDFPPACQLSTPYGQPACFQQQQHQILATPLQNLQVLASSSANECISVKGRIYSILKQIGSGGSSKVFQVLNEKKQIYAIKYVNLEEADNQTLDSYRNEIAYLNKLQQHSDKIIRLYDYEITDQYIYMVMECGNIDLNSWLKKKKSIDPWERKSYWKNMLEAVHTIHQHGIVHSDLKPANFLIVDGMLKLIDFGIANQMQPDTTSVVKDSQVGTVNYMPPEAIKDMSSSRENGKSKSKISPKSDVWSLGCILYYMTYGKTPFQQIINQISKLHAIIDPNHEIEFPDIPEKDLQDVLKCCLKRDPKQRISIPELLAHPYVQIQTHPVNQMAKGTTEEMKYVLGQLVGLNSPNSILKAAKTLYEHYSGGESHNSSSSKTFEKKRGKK

CCN1C(=O)CCCc2c1ccc(Nc1ncc(Cl)c(N[C@H]3[C@@H](C(N)=O)[C@@H]4C=C[C@H]3C4)n1)c2OC
inhibition [1]: 96% | inhibition [2]: 91% | inhibition [3]: 99% | inhibition [4]: 94% | concentration at 288 h [5]: 3560 ng/g | inhibition [6]: 90% | Activity (Mus musculus [7]): Non-toxic | concentration at 288 h [8]: 405 ng/g | half-life [9]: 0.8 h | inhibition [10]: 99% | inhibition [11]: 90% | inhibition [12]: 100% | clearance [13]: 13 mL/min/kg | inhibition [14]: 96% | inhibition [15]: 95% | IC50 [16]: 0.225 µM | Activity (SUP-M2 [17]): Active | AUC [18]: 1280 ng·h/mL | Activity (SUP-M2 [19]): inactive | inhibition [20]: < 50% | inhibition [21]: < 50% | inhibition [22]: 96% | AUC [23]: 4090 ng·h/mL | half-life [24]: 2.4 h | inhibition [25]: 93% | inhibition [26]: 89% | CL (Rattus norvegicus): 20% | inhibition [27]: 91% | inhibition [28]: < 50% | AUC [29]: 1410 ng·h/mL | Activity (Mus musculus [30]): Non-toxic | inhibition [31]: < 50% | half-life [32]: 2.2 h | inhibition [33]: 93% | bioavailability [34]: 64% | AUC [35]: 2480 ng·h/mL | inhibition [36]: 72% | inhibition [37]: 93% | CL (Mus musculus [38]): 41% | inhibition [39]: 96% | inhibition [40]: 90% | inhibition [41]: 100% | inhibition [42]: 91% | inhibition [43]: < 50% | growth inhibition (GI) (K562): inactive | inhibition [44]: 100% | inhibition [45]: < 50% | inhibition in vivo at 30 mg/kg (Mus musculus [46]): > 80% | Activity (KARPAS-299): Active | inhibition [47]: 90% | inhibition [48]: 94%
